{"source": "patent US7772180B2", "about": "“Hepatitis C virus inhibitors” (Bristol-Myers Squibb Company, priority 2006, dated 2010)", "assay_type_in_all_cases": "biochemical", "key": {"[1]": {"target": "T1, HCV NS3/4A protease complex, J4L6S strain (Hepatitis C virus genotype 1b, UniProt O92972, C1454S/C1711G)", "T1 construct": "DNA encoding the recombinant HCV NS3/4A protease complex (amino acids 1027 to 1711) for these strains; made in house; host or cells: Escherichia coli BL21 (DE3), pET21b", "T1 sequence (O92972 1027-1711 C1454S/C1711G, one chain of several)": "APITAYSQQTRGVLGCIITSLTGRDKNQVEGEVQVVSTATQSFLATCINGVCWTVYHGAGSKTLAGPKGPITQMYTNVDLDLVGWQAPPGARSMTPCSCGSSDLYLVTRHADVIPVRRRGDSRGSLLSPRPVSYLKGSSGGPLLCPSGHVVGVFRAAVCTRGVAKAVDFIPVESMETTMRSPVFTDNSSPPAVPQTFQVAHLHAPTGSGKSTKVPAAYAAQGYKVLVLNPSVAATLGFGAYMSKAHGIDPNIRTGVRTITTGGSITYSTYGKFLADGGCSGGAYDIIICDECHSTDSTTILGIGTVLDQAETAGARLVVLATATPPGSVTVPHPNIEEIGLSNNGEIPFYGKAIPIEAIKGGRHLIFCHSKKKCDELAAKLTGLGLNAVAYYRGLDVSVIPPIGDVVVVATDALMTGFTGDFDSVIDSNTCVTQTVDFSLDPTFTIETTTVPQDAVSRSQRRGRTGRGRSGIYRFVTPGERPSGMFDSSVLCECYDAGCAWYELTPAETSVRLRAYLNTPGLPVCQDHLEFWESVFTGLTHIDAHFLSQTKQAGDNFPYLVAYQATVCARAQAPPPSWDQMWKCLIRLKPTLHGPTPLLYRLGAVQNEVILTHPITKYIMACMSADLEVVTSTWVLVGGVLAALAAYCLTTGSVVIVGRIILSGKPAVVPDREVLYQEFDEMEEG", "assay": "FRET peptide assay to monitor HCV NS3/4A proteolytic activity (J4L6S strain)", "settings": "read-out: IC50 against the NS3/4A J4L6S strain", "description": "HCV NS3 protease complexes, derived from the BMS strain, H77 strain or J4L6S strain, were generated, as described below. These purified recombinant proteins were generated for use in a homogeneous assay (see below) to provide an indication of how effective compounds of the present disclosure would be in inhibiting HCV NS3 proteolytic activity.\nSerum from an HCV-infected patient was obtained from Dr. T. Wright, San Francisco Hospital. An engineered full-length cDNA (compliment deoxyribonucleic acid) template of the HCV genome (BMS strain) was constructed from DNA fragments obtained by reverse transcription-PCR (RT-PCR) of serum RNA (ribonucleic acid) and using primers selected on the basis of homology between other genotype 1a strains. From the determination of the entire genome sequence, a genotype 1a was assigned to the HCV isolate according to the classification of Simmonds et al. (See P Simmonds, K A Rose, S Graham, S W Chan, F McOmish, B C Dow, E A Follett, P L Yap and H Marsden, J. Clin. Microbiol., 31(6), 1493-1503 (1993)). […]"}, "[2]": {"target": "T2, porcine pancreatic elastase (PPE) (Sus scrofa, UniProt P00772)", "T2 construct": "purchased Sigma, EMDbiosciences", "T2 sequence (P00772 27-266)": "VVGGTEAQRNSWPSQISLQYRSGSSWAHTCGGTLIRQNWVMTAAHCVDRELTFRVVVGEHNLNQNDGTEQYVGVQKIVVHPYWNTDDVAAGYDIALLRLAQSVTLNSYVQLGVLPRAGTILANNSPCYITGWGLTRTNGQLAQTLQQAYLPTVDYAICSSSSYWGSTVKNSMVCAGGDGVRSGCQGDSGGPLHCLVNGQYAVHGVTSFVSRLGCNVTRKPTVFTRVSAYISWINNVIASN", "assay": "Specificity assay, porcine pancreatic elastase", "settings": "read-out: PPE activity in the specificity assays (IC50)", "procedure": "(§1) The specificities of compounds of the present disclosure were determined against a variety of serine proteases: human neutrophil elastase (HNE), porcine pancreatic elastase (PPE) and human pancreatic chymotrypsin and one cysteine protease: human liver cathepsin B. In all cases a 96-well plate format protocol using either colorimetric p-nitroaniline (pNA) substrate or fluorometric Amino-Methyl-Coumarin (AMC) specific for each enzyme was used as described previously (PCT Patent Application No. WO 00/09543) with some modifications to the serine protease assays. All enzymes were purchased from Sigma, EMDbiosciences while the substrates were from Bachem, Sigma and EMDbiosciences.\n(§2) The pNA assay for Chymotrypsin included a 1 h enzyme-inhibitor pre-incubation at room temperature followed by addition of substrate and hydrolysis to ˜15% conversion as measured on a Spectramax Pro microplate reader. Compound concentrations varied from 100 to 0.4 μM depending on their potency. Cathepsin B, HNE, and PPE assays each was initiated by addition of substrate to enzyme-inhibitor pre-incubated for 10 min at room temperature and hydrolysis to 15% conversion as measured on cytofluor.\n50 mM Tris-HCl, pH 8.0, 50 mM NaCl, 0.1 mM EDTA, 3% DMSO, 0.02% Tween-20, 5 μM succ-AAPV-AMC and 20 nM HNE or 8 nM PPE;\n(§3) The percentage of inhibition was calculated using the formula: [1−((UVinh−UVblank)/(UVctl−UVblank))]×100 […]"}, "human liver cathepsin B": {"target": "T3, human liver cathepsin B (Homo sapiens, UniProt P07858)", "T3 construct": "purchased Sigma, EMDbiosciences; host or cells: human liver", "assay": "Specificity assay, cathepsin B", "settings": "read-out: Cathepsin B activity in the specificity assays (IC50)", "procedure": "as §1\nas §2, with “cytofluor. […]” for “cytofluor.”\nas §3"}}}
{"compound": "C=C[C@@H]1C[C@]1(NC(=O)[C@@H]1C[C@@H](Oc2nc(N(C)C)cc3cc(OC)ccc23)CN1C(=O)C(Nc1cc(C)cc(C)n1)C(C)(C)C)C(=O)NS(=O)(=O)C1CC1", "note": "(single isomer, unassigned) [Compound 18]", "values": [{"measurement": "IC50", "setting": "[1]", "result": 0.9, "unit": "nM"}, {"measurement": "IC50", "setting": "[2]", "result": "> 1560", "unit": "nM"}, {"measurement": "IC50", "setting": "human liver cathepsin B", "result": "> 50000", "unit": "nM"}]}
